Source: US20070149600A1, “Substituted octahydroisoindoles” (priority 2005, published 2007)
Counter-ions that a name gives are not always drawn.

Target: T1, human MCH1R receptor (Homo sapiens, UniProt Q99705)
T1 construct: host or cells: CHO-K1
Assay: Binding assay: [125I]-MCH displacement by SPA on CHO-K1 hMCHR1 membranes
Settings: calculated from IC50 using the Cheng Prushoff equation; 0.2 nM [125I]-MCH; CHO-K1 hMCHRI membranes
Protocol: The compounds according to the invention were evaluated for their binding to the human MCH1R receptor by the following method:
Compounds. MCH peptide was purchased from Phoenix pharmaceuticals. (Phe^13, [^125I]Tyr^19 Melanine-Concentrating Hormone (human, mouse, rat) ([^125I]-MCH) was obtained from NEN life Science Products. Inc. Boston, Mass. Wheat germ agglutinine SPA beads (RPNQ 0001) were obtained from Amersham-Pharmacia Biotech. All other reagents used are of highest purity from different resources available. Protein Kits, Micro BCA™ Protein Assay Reagent Kit (Cat No. 23235) were purchased from Piece, Rockford, Ill., USA. […]
The radio labeled [^125I]-MCH was diluted with cold MCH in ratio 1:3. […] The results were calculated using Excel program and the curves were drawn using a program GraphPad Prism.
For screening of the substances the amount of the beads used was 0.25 mg/well and the amount of the membrane protein was 4 μg/well. […] The samples were counted using Microbeta counter (Wallac Trilux 1450 Micro beta counter, Wallac, Finland) for 2 minutes and the results were calculated by using the computer program Activity Base.
The Ki value is calculated from IC50 using the Cheng Prushoff equation: Ki=IC50(1+[S]/Km) [Cheng, Y. C.; Prushoff, W. H. Biochem. Pharmacol. 1973, 22, 3099-3108].

T1 sequence (Q99705 whole entry): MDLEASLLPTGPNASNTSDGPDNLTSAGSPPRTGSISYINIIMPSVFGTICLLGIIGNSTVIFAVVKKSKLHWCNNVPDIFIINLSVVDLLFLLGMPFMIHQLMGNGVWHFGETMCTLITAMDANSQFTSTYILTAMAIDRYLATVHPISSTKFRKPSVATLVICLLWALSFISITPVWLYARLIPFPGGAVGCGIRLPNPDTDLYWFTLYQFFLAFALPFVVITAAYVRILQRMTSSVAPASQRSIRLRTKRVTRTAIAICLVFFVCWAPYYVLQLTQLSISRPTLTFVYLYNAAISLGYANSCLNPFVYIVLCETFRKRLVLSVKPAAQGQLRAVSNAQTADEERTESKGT

SMILES	Ki [nM]
COc1ccc([C@@]23CC[C@@H](NC(=O)c4ccc(C(F)(F)F)cc4F)C[C@@H]2CN(C)C3)cc1OC (relative stereo) [Example 44, N-[(3aS*,5R*,7aR*)-7a-(3,4-Dimethoxyphenyl)-2-methyloctahydro-1H-isoindol-5-yl]-2-fluoro-4-(trifluoromethyl)benzamide trifluoroacetate]	288
COc1ccc([C@@]23CC[C@@H](NC(=O)Nc4cc(C)cc(C)c4)C[C@@H]2CN(C)C3)cc1OC (relative stereo) [Example 48, N-[(3 aS*,5R*,7aR*)-7a-(3,4-Dimethoxyphenyl)-2-methyloctahydro-1H-isoindol-5-yl]-N′-(3,5-dimethylphenyl)urea trifluoroacetate]	74
